According to article PMC6255377, “New 1-Aryl-3-Substituted Propanol Derivatives as Antimalarial Agents” (Molecules, 2009):
Where a name gives a salt, the structure may show the parent alone. Read-outs that look alike come from different tables or passages of the source.

Columns and labels:
[1] = tested on: P. falciparum 3D7 strain, chloroquine sensitive; assay: In vitro antimalarial activity screening (SYBR Green I micromethod); type: cell-based; conditions: Plasmodium falciparum, 3D7, 48 h incubation, mean of two experiments in triplicate, read-out: P. falciparum 3D7 IC50
Experimental: The SYBR^©GreenI-based micromethod was followed for testing the antimalarial activity of the compounds. Erythrocytic stages of P. falciparum 3D7 strain, chloroquine sensitive, were maintained in RPMI 1640 culture medium supplemented with 0.5% Albumax II at 37 °C in an atmosphere with 5% CO2. […] Next, stock solutions of each compound were prepared in DMSO and diluted in RPMI medium in order to obtain concentrations from 10 to 0.01 µg/mL. […] All compounds and controls were placed in triplicate. The plate was incubated under the same conditions. After 48 h, the plate was removed from the incubator and frozen for at least 1 h at -70 °C and then thawed. Finally, 100 µL of SYBR^©GreenI in lysis buffer (0.2 µL/mL) was added per well and shaken for 5 minutes or until no precipitated erythrocytes were observed. The plate was left to stand in the dark for 1 h at room temperature. Fluorescence intensity (FI) for each well was measured. The background of the nonparasitized erythrocytes was subtracted from each well tested.

O=[N+]([O-])c1ccc([C@@]2(NCCC(O)c3ccc4ccccc4c3)CCNC2)c(C(F)(F)F)c1 (stereo partly drawn) (as salt: hydrochloride) [Compound 45, 1-(2-naphthyl)-3-[3-(4-nitro-2-trifluoromethylphenyl)-(S)-pyrrolidin-3-ylamino]-propan-1-ol]
melting point: 181 to 183 °C

OC(CCN1CCN(c2ccc(Cl)cc2)CC1)c1ccccc1 (centres unmarked) [Compound 37]
IC50 ([1]; Table 2): 13 µM

O=C(CCNC1CCN(c2ccc([N+](=O)[O-])cc2)CC1)c1csc2ccccc12 [Compound 8, 1-(Benzo[b]thiophen-3-yl)-3-[1-(4-nitrophenyl)piperidin-4-ylamino]propan-1-one]
IC50 ([1]; Table 1): > 20 µM
melting point: 144 to 145 °C

OC(CCN1CCN(c2ccc(Cl)cc2)CC1)c1ccsc1 (centres unmarked) [Compound 36]
IC50 ([1]; Table 2): > 20 µM

COc1ccccc1N1CCN(CCC(O)c2ccc(-c3ccccc3)cc2)CC1 (centres unmarked) [Compound 40, 1-(4-Phenyl)phenyl-3-[4-(2-methoxyphenyl)piperazin-1-yl]propan-1-ol]
IC50 ([1]; Table 2): 14.6 µM
melting point: 109 to 110 °C

COc1ccccc1N1CCN(CCC(O)c2ccccc2)CC1 (centres unmarked) [Compound 39]
IC50 ([1]; Table 2): > 20 µM

Cc1ccc2cccc(N3CCN(CCC(=O)c4csc5ccccc45)CC3)c2n1 [Compound 5]
IC50 ([1]; Table 1): > 20 µM

O=C(CCN1CC[C@@H](Nc2ccc([N+](=O)[O-])cc2C(F)(F)F)C1)c1csc2ccccc12 [Compound 7, 1-(Benzo[b]thiophen-3-yl)-3-[3-(4-nitro-2-trifluoromethylphenylamino)-(R)-pyrrolidin-1-yl] propan-1-one]
IC50 ([1]; Table 1): > 20 µM
melting point: 98 to 100 °C

OC(CCN1CCN(c2ccc3ccccc3n2)CC1)c1csc2ccccc12 (centres unmarked) [Compound 25]
IC50 ([1]; Table 1): 2.22 µM

OC(CCN1CCN(c2cccc3cccnc23)CC1)c1csc2ccccc12 (centres unmarked) [Compound 20]
IC50 ([1]; Table 1): 2.15 µM

O=[N+]([O-])c1ccc(N2CC[C@H](NCCC(O)c3csc4ccccc34)C2)c(C(F)(F)F)c1 (stereo partly drawn) [Compound 30, 1-(Benzo[b]thiophen-3-yl)-3-[1-(4-nitro-2-trifluoromethylphenyl)-(S)-pyrrolidin-3-ylamino]propan-1-ol]
IC50 ([1]; Table 1): 0.97 µM
melting point: 109 to 110 °C

O=C(CCN1CCCN(c2ccc([N+](=O)[O-])cc2)CC1)c1csc2ccccc12 (as salt: hydrochloride) [Compound 9, 1-(benzo[b]thiophen-3-yl)-3-[4-(4-nitrophenyl)-1,4-diazepan-1-yl]propan-1-one]
melting point: 121 to 123 °C

OC(CCN1CCN(c2ccc(Cl)cc2)CC1)c1csc2ccccc12 (centres unmarked) [Compound 19]
IC50 ([1]; Table 1): 5.65 µM

OC(CCN1CCN(c2cccc3[nH]ccc23)CC1)c1csc2ccc(F)cc12 (centres unmarked) [Compound 18]
IC50 ([1]; Table 1): 3.81 µM

Oc1ccccc1N1CCN(CCC(O)c2csc3ccccc23)CC1 (centres unmarked) [Compound 14]
IC50 ([1]; Table 1): 13.7 µM

COc1ccccc1N1CCN(CCC(=O)c2csc3ccccc23)CC1 [Compound 3]
IC50 ([1]; Table 1): > 20 µM

OC(CCN1CCN(c2cccc3[nH]ccc23)CC1)c1csc2ccccc12 (centres unmarked) [Compound 17]
IC50 ([1]; Table 1): 6.99 µM

OC(CCN1CCN(c2ccc(Cl)cc2)CC1)c1ccc(-c2ccccc2)cc1 (centres unmarked) [Compound 38, 1-(4-Phenyl)phenyl-3-[4-(4-chlorophenyl)piperazin-1-yl]propan-1-ol]
IC50 ([1]; Table 2): > 20 µM
melting point: 169 to 170 °C

OC(CCN1CCN(c2cccc3ccccc23)CC1)c1csc2ccccc12 (centres unmarked) [Compound 11]
IC50 ([1]; Table 1): 6.13 µM

COc1ccccc1N1CCN(CCC(O)c2ccc(C)cc2C)CC1 (centres unmarked) [Compound 43]
IC50 ([1]; Table 2): 16.9 µM

O=[N+]([O-])c1ccc(N[C@@H]2CCN(CCC(O)c3csc4ccccc34)C2)c(C(F)(F)F)c1 (stereo partly drawn) [Compound 29, 1-(Benzo[b]thiophen-3-yl)-3-[3-(4-nitro-2-trifluoromethylphenylamino)-(R)-pyrrolidin-1-yl]propan-1-ol]
IC50 ([1]; Table 1): 2.99 µM
melting point: 48 to 50 °C

Cc1ccc(C(O)CCN2CCN(c3ccccc3O)CC2)c(C)c1 (centres unmarked) [Compound 46]
IC50 ([1]; Table 2): 18.2 µM

COc1ccccc1N1CCN(CCC(O)c2ccc3cc(C)ccc3c2)CC1 (centres unmarked) (as salt: hydrochloride) [Compound 44, 1-(6-methylnapth-2-yl)-3-[4-(2-methoxyphenyl)piperazin-1-yl]propan-1-ol]
melting point: 116 to 117 °C

OC(CCN1CCN(c2cccc3cccnc23)CC1)c1csc2ccc(F)cc12 (centres unmarked) [Compound 21]
IC50 ([1]; Table 1): 0.79 µM

O=C(CCN1CCN(c2cccc3ccccc23)CC1)c1csc2ccc(F)cc12 [Compound 1]
IC50 ([1]; Table 1): > 20 µM

O=C(CCN1CCN(c2cccc3cccnc23)CC1)c1csc2ccc(F)cc12 [Compound 4]
IC50 ([1]; Table 1): > 20 µM

COc1ccccc1N1CCN(CCC(O)c2ccc3cc(C)ccc3c2)CC1 (centres unmarked) [Compound 44, 1-(6-methylnapth-2-yl)-3-[4-(2-methoxyphenyl)piperazin-1-yl]propan-1-ol]
IC50 ([1]; Table 2): 9.64 µM

COc1ccccc1N1CCN(CCC(O)c2c[nH]c3ccccc23)CC1 (centres unmarked) [Compound 41, 1-(3-Indolyl)-3-[4-(2-methoxyphenyl)piperazin-1-yl]propan-1-ol]
IC50 ([1]; Table 2): > 20 µM
melting point: 188 to 189 °C

COc1ccccc1N1CCN(CCC(O)c2ccc3ccccc3c2)CC1 (centres unmarked) [Compound 42]
IC50 ([1]; Table 2): 0.83 µM

O=C(CCN1CCN(c2cnc3ccccc3n2)CC1)c1csc2ccccc12 [Compound 10, 1-(Benzo[b]thiophen-3-yl)-3-[4-(quinoxalin-2-yl)piperazin-1-yl]propan-1-one]
IC50 ([1]; Table 1): > 20 µM
melting point: 145 to 146 °C

COc1ccccc1N1CCN(CCC(O)c2csc3ccccc23)CC1 (centres unmarked) [Compound 13]
IC50 ([1]; Table 1): 1.07 µM

OC(CCN1CCN(c2cccc3c2OCCO3)CC1)c1csc2ccc(F)cc12 (centres unmarked) [Compound 27]
IC50 ([1]; Table 1): 0.9 µM

COc1cccc(N2CCN(CCC(O)c3csc4ccc(F)cc34)CC2)c1 (centres unmarked) [Compound 16, 1-(5-fluorobenzo[b]thiophen-3-yl)-3-[4-(3-methoxyphenyl)piperazin-1-yl]propan-1-ol]
IC50 ([1]; Table 1): 1.67 µM

O=[N+]([O-])c1ccc(N2CCN(CCC(O)c3csc4ccc(F)cc34)CC2)cc1 (centres unmarked) [Compound 32, 1-(5-Fluorobenzo[b]thiophen-3-yl)-3-[4-(4-nitrophenyl)piperazin-1-yl]propan-1-ol]
IC50 ([1]; Table 1): > 20 µM
melting point: 189 to 190 °C

O=C(CCN1CCCN(c2ccc([N+](=O)[O-])cc2)CC1)c1csc2ccccc12 [Compound 9, 1-(benzo[b]thiophen-3-yl)-3-[4-(4-nitrophenyl)-1,4-diazepan-1-yl]propan-1-one]
IC50 ([1]; Table 1): > 20 µM

OC(CCN1CCN(c2cccc3ncccc23)CC1)c1csc2ccccc12 (centres unmarked) [Compound 24]
IC50 ([1]; Table 1): 1.3 µM

O=[N+]([O-])c1ccc([C@@]2(NCCC(O)c3ccc4ccccc4c3)CCNC2)c(C(F)(F)F)c1 (stereo partly drawn) [Compound 45, 1-(2-naphthyl)-3-[3-(4-nitro-2-trifluoromethylphenyl)-(S)-pyrrolidin-3-ylamino]-propan-1-ol]
IC50 ([1]; Table 2): 9.1 µM

Cc1ccc2cccc(N3CCN(CCC(O)c4csc5ccccc45)CC3)c2n1 (centres unmarked) [Compound 22]
IC50 ([1]; Table 1): 0.66 µM

OC(CCN1CCN(c2cccc3c2OCCO3)CC1)c1csc2ccccc12 (centres unmarked) [Compound 26]
IC50 ([1]; Table 1): 3.56 µM

COc1ccccc1N1CCN(CCC(=O)c2csc3ccc(F)cc23)CC1 [Compound 2]
IC50 ([1]; Table 1): > 20 µM

COc1cccc(N2CCN(CCC(O)c3csc4ccc(F)cc34)CC2)c1 (centres unmarked) (as salt: hydrochloride) [Compound 16, 1-(5-fluorobenzo[b]thiophen-3-yl)-3-[4-(3-methoxyphenyl)piperazin-1-yl]propan-1-ol]
melting point: 135 to 137 °C
